Assay results taken from PubChem BioAssay (NCI).
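Following 48 hours of exposure in 96-well plates, responses at five concentrations were used to interpolate endpoints linearly. Here, GI50 denotes the concentration required for 50% inhibition of growth. TGI: concentration producing complete growth inhibition.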

Experiments:
Assay in all cases: DTP human tumour cell line panel, 48 h
ACHN renal = test system: ACHN renal
SW-620 colon = test system: SW-620 colon
NCI-H460 lung = test system: NCI-H460 lung
UACC-62 melanoma = test system: UACC-62 melanoma
NCI-H226 lung = test system: NCI-H226 lung
SK-MEL-28 melanoma = test system: SK-MEL-28 melanoma
SF-268 CNS = test system: SF-268 CNS
CAKI-1 renal = test system: CAKI-1 renal
HOP-62 NSCLC = test system: HOP-62 NSCLC
HCT-116 colon = test system: HCT-116 colon
786-0 renal = test system: 786-0 renal
OVCAR-4 ovarian = test system: OVCAR-4 ovarian
EKVX NSCLC = test system: EKVX NSCLC
HT29 colon = test system: HT29 colon
HCT-15 colon = test system: HCT-15 colon
HS 578T breast = test system: HS 578T breast
K-562 leukemia = test system: K-562 leukemia
SF-295 CNS = test system: SF-295 CNS
SK-OV-3 ovarian = test system: SK-OV-3 ovarian
MDA-MB-231 breast = test system: MDA-MB-231 breast
SF-539 CNS = test system: SF-539 CNS
MALME-3M melanoma = test system: MALME-3M melanoma
SN12C renal = test system: SN12C renal
OVCAR-8 ovarian = test system: OVCAR-8 ovarian
COLO 205 colon = test system: COLO 205 colon
BT-549 breast = test system: BT-549 breast
SK-MEL-2 melanoma = test system: SK-MEL-2 melanoma
T-47D breast = test system: T-47D breast
MCF7 breast = test system: MCF7 breast
UO-31 renal = test system: UO-31 renal
OVCAR-5 ovarian = test system: OVCAR-5 ovarian
IGROV1 ovarian = test system: IGROV1 ovarian
NCI/ADR-RES ovarian = test system: NCI/ADR-RES ovarian
MDA-MB-435 = test system: MDA-MB-435
HCC-2998 colon = test system: HCC-2998 colon
HL-60(TB) leukemia = test system: HL-60(TB) leukemia
PC-3 prostate = test system: PC-3 prostate
MOLT-4 leukemia = test system: MOLT-4 leukemia
NCI-H23 lung = test system: NCI-H23 lung
CCRF-CEM leukemia = test system: CCRF-CEM leukemia
TK-10 renal = test system: TK-10 renal
DU-145 prostate = test system: DU-145 prostate
OVCAR-3 ovarian = test system: OVCAR-3 ovarian
SK-MEL-5 melanoma = test system: SK-MEL-5 melanoma
KM12 colon = test system: KM12 colon
SNB-75 CNS = test system: SNB-75 CNS
A549 NSCLC = test system: A549 NSCLC
M14 melanoma = test system: M14 melanoma
RPMI-8226 leukemia = test system: RPMI-8226 leukemia
SR leukemia = test system: SR leukemia
LOX IMVI melanoma = test system: LOX IMVI melanoma
U251 CNS = test system: U251 CNS
HOP-92 NSCLC = test system: HOP-92 NSCLC
SNB-19 CNS = test system: SNB-19 CNS
NCI-H522 lung = test system: NCI-H522 lung

C[C@@H](Nc1nc(Nc2ccc(F)c(Cl)c2)nc2ccccc12)C1CC1
GI50 (ACHN renal): 4.11 µM | TGI (ACHN renal): 17.3 µM | GI50 (SW-620 colon): 3.14 µM | TGI (SW-620 colon): 13.9 µM | GI50 (NCI-H460 lung): 3.12 µM | TGI (NCI-H460 lung): 19.3 µM | GI50 (UACC-62 melanoma): 2680 nM | TGI (UACC-62 melanoma): 14.3 µM | GI50 (NCI-H226 lung): 6.37 µM | TGI (NCI-H226 lung): 35.9 µM | GI50 (SK-MEL-28 melanoma): 2860 nM | TGI (SK-MEL-28 melanoma): 11.8 µM | GI50 (SF-268 CNS): 6.43 µM | TGI (SF-268 CNS): 26.8 µM | GI50 (CAKI-1 renal): 3.18 µM | TGI (CAKI-1 renal): 15.7 µM | GI50 (HOP-62 NSCLC): 11.2 µM | TGI (HOP-62 NSCLC): 25 µM | GI50 (HCT-116 colon): 1490 nM | TGI (HCT-116 colon): 3.2 µM | GI50 (786-0 renal): 1690 nM | TGI (786-0 renal): 3.45 µM | GI50 (OVCAR-4 ovarian): 1730 nM | TGI (OVCAR-4 ovarian): 12.9 µM | GI50 (EKVX NSCLC): 2720 nM | TGI (EKVX NSCLC): 12.4 µM | GI50 (HT29 colon): 2720 nM | TGI (HT29 colon): 11.7 µM | GI50 (HCT-15 colon): 2390 nM | TGI (HCT-15 colon): 8.14 µM | GI50 (HS 578T breast): 6.02 µM | TGI (HS 578T breast): 25.6 µM | GI50 (K-562 leukemia): 2820 nM | TGI (K-562 leukemia): 9.75 µM | GI50 (SF-295 CNS): 1880 nM | TGI (SF-295 CNS): 8.92 µM | GI50 (SK-OV-3 ovarian): 5.36 µM | TGI (SK-OV-3 ovarian): 17.3 µM | GI50 (MDA-MB-231 breast): 2460 nM | TGI (MDA-MB-231 breast): 7.61 µM | GI50 (SF-539 CNS): 3.16 µM | TGI (SF-539 CNS): 12.4 µM | GI50 (MALME-3M melanoma): 1660 nM | TGI (MALME-3M melanoma): 3.65 µM | GI50 (SN12C renal): 3.25 µM | TGI (SN12C renal): 14.4 µM | GI50 (OVCAR-8 ovarian): 3.58 µM | TGI (OVCAR-8 ovarian): 20.5 µM | GI50 (COLO 205 colon): 1710 nM | TGI (COLO 205 colon): 3.46 µM | GI50 (BT-549 breast): 2510 nM | TGI (BT-549 breast): 7.3 µM | GI50 (SK-MEL-2 melanoma): 5.88 µM | TGI (SK-MEL-2 melanoma): 24.9 µM | GI50 (T-47D breast): 2700 nM | TGI (T-47D breast): 14 µM | GI50 (MCF7 breast): 2840 nM | TGI (MCF7 breast): 13.3 µM | GI50 (UO-31 renal): 2620 nM | TGI (UO-31 renal): 14 µM | GI50 (OVCAR-5 ovarian): 3.73 µM | TGI (OVCAR-5 ovarian): 16 µM | GI50 (IGROV1 ovarian): 3.06 µM | TGI (IGROV1 ovarian): 17.7 µM | GI50 (NCI/ADR-RES ovarian): 2300 nM | TGI (NCI/ADR-RES ovarian): 8.52 µM | GI50 (MDA-MB-435): 3.93 µM | TGI (MDA-MB-435): 15 µM | GI50 (HCC-2998 colon): 2270 nM | TGI (HCC-2998 colon): 6.46 µM | GI50 (HL-60(TB) leukemia): 2450 nM | TGI (HL-60(TB) leukemia): 6.32 µM | GI50 (PC-3 prostate): 2190 nM | TGI (PC-3 prostate): 8.04 µM | GI50 (MOLT-4 leukemia): 1730 nM | TGI (MOLT-4 leukemia): 5.38 µM | GI50 (NCI-H23 lung): 1480 nM | TGI (NCI-H23 lung): 9.34 µM | GI50 (CCRF-CEM leukemia): 2250 nM | TGI (CCRF-CEM leukemia): 7.12 µM | GI50 (TK-10 renal): 6.96 µM | TGI (TK-10 renal): 20.3 µM | GI50 (DU-145 prostate): 7.19 µM | TGI (DU-145 prostate): 20.5 µM | GI50 (OVCAR-3 ovarian): 3.21 µM | TGI (OVCAR-3 ovarian): 12.7 µM | GI50 (SK-MEL-5 melanoma): 1550 nM | TGI (SK-MEL-5 melanoma): 2960 nM | GI50 (KM12 colon): 3.18 µM | TGI (KM12 colon): 14.1 µM | GI50 (SNB-75 CNS): 4.08 µM | TGI (SNB-75 CNS): 22.3 µM | GI50 (A549 NSCLC): 5.64 µM | TGI (A549 NSCLC): 19.6 µM | GI50 (M14 melanoma): 1870 nM | TGI (M14 melanoma): 4.12 µM | GI50 (RPMI-8226 leukemia): 1330 nM | TGI (RPMI-8226 leukemia): 3.81 µM | GI50 (SR leukemia): 1630 nM | TGI (SR leukemia): 5.26 µM | GI50 (LOX IMVI melanoma): 1680 nM | TGI (LOX IMVI melanoma): 3.25 µM | GI50 (U251 CNS): 3.72 µM | TGI (U251 CNS): 14.5 µM | GI50 (HOP-92 NSCLC): 1600 nM | TGI (HOP-92 NSCLC): 5.79 µM | GI50 (SNB-19 CNS): 4.44 µM | TGI (SNB-19 CNS): 22.1 µM | GI50 (NCI-H522 lung): 4.32 µM | TGI (NCI-H522 lung): 19.5 µM
